Assay results from paper PMC10298626 (International Journal of Molecular Sciences, 2023).
Marks after values point to notes of the source that are not given here.

Columns and labels:
[1] = system: LPS-stimulated RAW264.7 cells; test: NO production (Griess reagent) in LPS-stimulated RAW264.7 cells; assay type: cell-based, Mouse; settings: for NO production, Average / NO production, Average (μM): then LPS (500 ng/mL) 20 h, LPS alone 25.9, control 3.1; for Anti-inflammatory effect (inhibition of NO secretion), in words: 20, 40, and 80 μM, compared with LPS-only treatment
Protocol: A high concentration of NO promotes the synthesis of inflammatory mediators, leading to an inflammatory response, and has been reported to be a cause of various immune diseases. Therefore, this study was conducted to investigate the effect of coumarin derivatives on the production of NO induced by LPS stimulation in RAW264.7 cells. The cells were treated with coumarin derivatives at concentrations of 20, 40, and 80 μM for 2 h. Then, the cells were treated with LPS. After 20 h, the culture supernatant was recovered, and the amount of NO was measured. […] The anti-inflammatory activity of these derivatives depended on the position of the substituted group rather than the electron density of the substituted group.
The Griess reagent was used to measure NO production. RAW264.7 cells were seeded into a 96-well plate and cultured for 24 h. The cells were treated with 20, 40, and 80 μM of coumarin derivatives, cultured for 2 h, and then cultured with LPS (500 ng/mL) for 20 h. The same amount of cell supernatant and Griess reagent were used for the reaction, and absorbance was measured at 540 nm.

in vitro = assay type: cell-based; settings: mouse, RAW264.7 cells, then LPS (500 ng/mL) 20 h, read-out: Cell viability, Average (%); for viability at 22 h, 20 μM: 20 μM for 2 h; for viability at 22 h, 40 μM: 40 μM for 2 h; for viability at 22 h, 80 μM: 80 μM for 2 h
Protocol: To investigate the anti-inflammatory activity of coumarin derivatives, cell viability was analyzed by treating RAW264.7 cells with 23 types of coumarin derivatives at concentrations of 20, 40, and 80 μM for 2 h and with LPS for 20 h.
Mouse macrophage RAW264.7 cells were purchased from the Korea Cell Line Bank (Seoul, Republic of Korea) and cultured in Dulbecco’s Modified Eagle Medium (Corning, NY, USA) containing 10% fetal bovine serum and 1% penicillin/streptomycin at 37 °C and 5% CO2. The medium was changed every 2 days and subcultured when the cells grew > 80%.
EZ-Cytox cell viability assay kit (Dogen, Suwon, Republic of Korea) was used to measure cell viability according to the manufacturer’s instructions. RAW264.7 cells were seeded into a 96-well plate (1 × 10^5 cells/well) and treated with coumarin derivatives at concentrations of 20, 40, and 80 μM. After 2 h, the cells were treated with LPS (500 ng/mL) and cultured for 24 h in a 37 °C, 5% CO2 incubator. The culture supernatant was treated with 10% EZ-Cytox reagent, and a microplate reader was used to measure the absorbance at 450 nm.

Structure (SMILES)	NO production, Average ([1]; 20 μM for 2 h) [µM]	NO production, Average ([1]; 40 μM for 2 h) [µM]	NO production, Average (μM) ([1]; 80 μM for 2 h)	viability at 22 h, 20 μM (in vitro) [%]	viability at 22 h, 40 μM (in vitro) [%]	viability at 22 h, 80 μM (in vitro) [%]	Anti-inflammatory effect (inhibition of NO secretion), in words [1]	NO production, Average (μM) ([1]; 40 μM for 2 h)	NO production, Average ([1]; 80 μM for 2 h) [µM]
COc1cccc(C2C(C#N)=C(N)Oc3c2c(=O)oc2ccccc32)c1 (centres unmarked) [Coumarin derivative 16]	27.58	26.33	16.17 *** μM	107	102	96.3	–	–	–
N#CC1=C(N)Oc2c(c(=O)oc3ccccc23)C1c1cccc(C#N)c1 (centres unmarked) [Coumarin derivative 21]	28.68	22.73	11.97 *** μM	131	122	102	weak anti-inflammatory effects	–	–
N#CC1=C(N)Oc2c(c(=O)oc3ccccc23)C1c1ccc(OC(F)(F)F)cc1 (centres unmarked) [Coumarin derivative 14]	27.72	24.52	16.31 *** μM	110	95.8	102	weak anti-inflammatory effects at high concentrations	–	–
Cc1cccc(C2C(C#N)=C(N)Oc3c2c(=O)oc2ccccc32)c1 (centres unmarked) [Coumarin derivative 10]	24.24	–	9.21 *** μM	111	113	104	inhibited NO secretion in a concentration-dependent manner	20.34 ** μM	–
N#CC1=C(N)Oc2c(c(=O)oc3ccccc23)C1c1cccc(Br)c1 (centres unmarked) [Coumarin derivative 19]	27.07	17.76	10.05 *** μM	117	119	120	inhibited NO secretion in a concentration-dependent manner	–	–
Cc1ccccc1C1C(C#N)=C(N)Oc2c1c(=O)oc1ccccc21 (centres unmarked) [Coumarin derivative 9]	23.27	24.10	–	118	111	112	almost no anti-inflammatory effect	–	21.32
N#CC1=C(N)Oc2c(c(=O)oc3ccccc23)C1c1ccc(Cl)cc1 (centres unmarked) [Coumarin derivative 8]	32.19	24.11	10.64 *** μM	103	107	93.5	–	–	–
N#CC1=C(N)Oc2c(c(=O)oc3ccccc23)C1c1cccc(OC(F)(F)F)c1 (centres unmarked) [Coumarin derivative 13]	27.17	26.33	–	114	118	112	almost no anti-inflammatory effects	–	24.94
N#CC1=C(N)Oc2c(c(=O)oc3ccccc23)C1c1ccccc1C(F)(F)F (centres unmarked) [Coumarin derivative 4]	15.71	–	18.09 *** μM	79.9	91.2	88.7	–	17.45 *** μM	–
N#CC1=C(N)Oc2c(c(=O)oc3ccccc23)C1c1ccc(C(F)(F)F)cc1 (centres unmarked) [Coumarin derivative 6]	30.92	26.49	16.82 *** μM	98.7	111	111	weak anti-inflammatory effects at high concentrations	–	–
N#CC1=C(N)Oc2c(c(=O)oc3ccccc23)C1c1cccc(C(F)(F)F)c1 (centres unmarked) [Coumarin derivative 5]	30.77	28.71	–	86.8	110	113	almost no anti-inflammatory effects	–	25.38
